Assay: Variable Temperature X-Ray Powder Diffraction (VT-XRPD)
Assay type: physicochemical
Set-up: key: M4: Crystalline Form 4 mono(hydrogen sulfate); M8: Crystalline Form 8 mono(hydrogen sulfate); Amorphous mono(hydrogen sulfate)
Description: (§1) In the examples below, VT-XRPD analysis was carried out on a Philips X'Pert Pro Multipurpose diffractometer equipped with a temperature chamber. The samples were scanned between 4 and 36° 2θ using Cu K radiation (α1 λ=1.54060 Å; α2=1.54443 Å; β=1.39225 Å; α1: α2 ratio=0.5; most, if not all, B radiation is removed from the beam using an X-ray mirror) running in Bragg-Brentano geometry (step size 0.008° 2θ) using 40 kV/40 mA generator settings. Measurements were carried out from ambient temperature to an upper limit of 250° C., with a final measurement taken after cooling.
as §1, with “VT-XRPD” for “In the examples below, VT-XRPD”, “Å; β2=1.39225” for “Å; β=1.39225”, “Å; α1:α2” for “Å; α1: α2”, “all, β” for “all, B”

Compound: COc1cc(C(=O)O[C@@H]2CCCOc3cc(cc(OC)c3OC)C(=O)NCCCN3CCCN(CC2)CC3)cc(OC)c1OC.O=S(=O)(O)O
- VT-XRPD Results (Cooling, 30° C., hold 10 min): M8
- VT-XRPD Results (Heating, 40° C., hold 60 min): M8
- VT-XRPD Results (Heating, 50° C., hold 60 min): M8
- VT-XRPD Results (Heating, 70° C., hold 60 min): M8
- VT-XRPD Results (second Heating, 50° C., hold 60 min): M8
- VT-XRPD Results (second Heating, 70° C., hold 60 min): M8
- VT-XRPD Results (second Heating, 90° C., hold 60 min): Amorphous
- VT-XRPD Results (second Heating, 100° C., hold 60 min): Amorphous
- VT-XRPD Results (second Heating, 110° C., hold 60 min): Amorphous

From patent US20240327415A1, “Multicomponent Complexes, Including Salts, Crystalline Forms, and Hydrates and Solvates of ENT1 Inhibitors” (iTeos Belgium SA, priority 2023, published 2024)
